Measured values: patent US8895552B2, “Cyclic amide derivative” (Sumitomo Dainippon Pharma Co., Ltd., priority 2010, dated 2014)

Tests used:
[1] = biological target: T1, cortisone reductase (11βHSD1) (Mus musculus, UniProt P50172); experiment: Inhibitory activity assay against cortisone reductase of mouse primary adipocytes; assay type: cell-based; details: differentiated primary adipocytes from visceral fat of ICR male mice, 100 nM [1,2-3H] cortisone, 37° C., read-out: IC50 against cortisone reductase of mouse adipose cell
T1 construct: host or cells: primary cells from visceral fat tissue of ICR male mice, differentiated to adipocytes in culture
T1 sequence (P50172 whole entry): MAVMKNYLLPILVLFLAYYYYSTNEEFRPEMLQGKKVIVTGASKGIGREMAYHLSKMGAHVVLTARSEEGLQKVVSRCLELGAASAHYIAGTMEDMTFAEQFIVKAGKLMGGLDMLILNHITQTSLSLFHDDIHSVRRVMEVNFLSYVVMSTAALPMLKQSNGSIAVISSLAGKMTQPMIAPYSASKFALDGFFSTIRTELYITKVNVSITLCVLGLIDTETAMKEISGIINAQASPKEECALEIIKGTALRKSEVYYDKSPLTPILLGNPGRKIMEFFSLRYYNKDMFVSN
Method: Experiment 2: Inhibitory Activity Assay Against Cortisone Reductase of Mouse Primary Adipocytes
The adipose tissues adhered to the mesenterium and around the testicle of ten ICR male mice (9 to 11 weeks old, Japan SLC Inc.) (hereinafter, referred to as visceral fat tissue) were soaked in about 100 mL of a phosphate buffer (0.20 g/L KCl, 0.20 g/L KH2PO4, 8.00 g/L NaCl, 2.16 g/L Na2HPO4.7H2O, 100 unit/ml penicillin (GIBCO), 100 μg/ml streptomycin (GIBCO), 250 ng/ml amphotericin (GIBCO)) and washed at room temperature.
The excised visceral fat tissues was cut finely in about 5×5 mm with scissors in Dulbecco's modified Eagle medium (about 50 ml, containing 4.5 g/L D-glucose and 584 mg/L L-glutamine, GIBCO) to which collagenase (Type II, Sigma), penicillin (GIBCO), streptomycin (GIBCO) and amphotericin (GIBCO) were added in an amount so that the final concentrations thereof are adjusted to 1 mg/ml, 100 unit/ml, 100 μg/ml and 250 ng/ml, respectively. Then, the mixture was shaken at 37° C. for 30 minutes (about 170 rpm), filtered through nylon mesh (80S [the pore size: 250 μm], SANSHIN INDUSTRIAL CO., LTD.), and the filtrate (cell suspension) was collected. This filtrate was centrifuged at 1800 rpm at room temperature for 5 minutes, and then, the liquid layer was removed stilly by decantation to give a precipitate. This precipitate was suspended in Dulbecco's modified Eagle medium (30 ml, containing 4.5 g/L D-glucose and 584 mg/L L-glutamine, GIBCO; hereinafter, occasionally referred to as FBS-containing medium), to which fetal bovine serum (hereinafter referred to as FBS, GIBCO), ascorbic acid (Wako Pure Chemical Industries, Ltd.), penicillin (GIBCO), streptomycin (GIBCO) and amphotericin (GIBCO) are added thereto in an amount so that the final concentrations thereof were adjusted to 10%, 200 μM, 100 units/ml, 100 μg/ml and 250 ng/ml, respectively, and then the suspension was filtered through a nylon mesh (420S [pore size: 25 μm], SANSHIN INDUSTRIAL CO., LTD.). The filtrate was collected, and centrifuged at 1800 rpm at room temperature for 5 minutes. The liquid layer was removed stilly by decantation, and the precipitate was suspended again in the FBS-containing medium (30 ml). This suspension was treated by the same procedure (centrifugation, removal of liquid layer, suspension in FBS-containing medium) two times more, and the suspension (90 ml) was prepared. This suspension was put into cell culture flasks (T150, for adhered cell culture, Iwaki Glass) in a each volume of 30 ml, and incubated at 37° C. in the presence of 5% CO2. At 5 to 6 hours after starting incubation, the medium was removed, and the wall of the flask was washed with the above-mentioned phosphate buffer (15 ml). The washing liquid was removed, and the washing procedure was repeated again, and the phosphate buffer was removed. To the flask was added FBS-containing medium (30 ml), and the mixture was incubated at 37° C. in the presence of 5% CO2. On Day 1 or Day 2 after the culture started, the medium was removed, and the wall of the flask was washed with the phosphate buffer (15 ml) once. To the flask was added a trypsin-ethylenediamine tetraacetate (hereinafter, referred to as trypsin-EDTA) solution (0.05% trypsin, 0.53 mM EDTA.4Na, GIBCO) in such a volume that the cells are duly soaked, and the mixture was allowed to stand at 37° C. for 5 minutes. To this mixture was added the FBS-containing medium in about 10-times volume of that of the trypsin-EDTA solution, and then the cell suspension was obtained.
The cells in the cell suspension were counted with a counting chamber, and the cell suspension was diluted with the FBS-containing medium so that the concentration of the cell was adjusted to 1.4×10^5 cells/ml. Thus obtained cell dilution was put into a 48-well plate (for adherent cell culture, Iwaki Glass) in an amount of 300 μl per well, and the plate was incubated at 37° C. in the presence of 5% CO2 for 1 to 2 day(s). […]

[2] = biological target: T2, 11βHSD1 (Homo sapiens, UniProt P28845); experiment: Inhibitory activity assay against cortisone reducing activity of cultured human adipocytes; assay type: cell-based; details: differentiated normal human preadipocytes (HPrAD-vis), 100 nM [1,2-3H] cortisone, 37° C., read-out: IC50 against cortisone reducing activity of human adipose cell
T2 construct: host or cells: normal human visceral preadipocytes differentiated to adipocytes
T2 sequence (P28845 whole entry): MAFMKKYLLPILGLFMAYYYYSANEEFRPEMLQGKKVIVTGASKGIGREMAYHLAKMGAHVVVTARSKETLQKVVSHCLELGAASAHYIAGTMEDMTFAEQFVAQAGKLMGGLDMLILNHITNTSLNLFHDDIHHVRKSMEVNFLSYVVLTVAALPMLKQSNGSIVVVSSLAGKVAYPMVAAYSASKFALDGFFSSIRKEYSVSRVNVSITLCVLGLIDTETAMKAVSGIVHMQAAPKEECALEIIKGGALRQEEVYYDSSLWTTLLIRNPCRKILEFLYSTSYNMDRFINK
Method: Experiment 1: Inhibitory Activity Assay Against Cortisone Reducing Activity of Cultured Human Adipocytes
Normal human preadipocytes (HPrAD-vis, manufactured by Cambrex corporation) were inoculated onto a 48-well cell culture plate, and the differentiation induction was carried out according to Protocol attached to the kit. The medium for the cells on the 9-11 days of the differentiation was changed to D-MEM medium (0.2 ml; manufactured by GIBCO) containing 100 nM [1,2-^3H] cortisone (1 μCi/well, manufactured by Muromachi Yakuhin), 0.5% dimethylsulfoxide and a test compound (for test compound treated group, or dimethylsulfoxide only for the no-test compound treated group). The plate was incubated at 37° C. for 3 hours, and then the whole medium was collected. As a background group, the medium without cell was used. The medium was mixed with ethyl acetate (0.1 ml) in an Eppendorf tube. This mixture was voltexed, and then further centrifuged at 5,000 rpm for one minute at room temperature to separate the ethyl acetate (the upper layer). The ethyl acetate (10 μl) was spotted on an aluminium plate for thin layer chromatography (silica gel 60 angstrom, Merck & Co., Inc., hereinafter referred to as TLC plate). The developing solvent (chloroform/methanol (90:10, v/v)) was put into a sealed vessel, and the TLC plate was developed, and then dried at room temperature. An imaging plate (TR-2040, Fujifilm) was exposed onto the dried TLC plate for 16 hours or more. After the exposure was completed, the imaging plate was analyzed by Bioimage Analyzer (BAS2500, Fujifilm), and the [^3H] radioactivity was measured at the corresponding position of cortisol developed on the TLC plate. The inhibitory activity of a test compound against cortisone reducing activity was calculated according to the following equation. (inhibitory activity(%))=100×((group without test compound)−(group with test compound))/((group without test compound)−(background group))
The IC50 value was calculated by linear regression of logarithmic value of the concentration of test compound and the inhibitory activity value, using the data at 2 points showing around 50% of the inhibitory activity. […] The IC50 value of the following compounds of the present invention against cortisone reducing activity of human adipose cell was determined.

`Cc1cc(C(=O)C2CCOCC2)sc1C(=O)N[C@H]1C2CC3CC1C[C@](O)(C3)C2` [Example 9] showed an IC50 [1] of 11.1 nM.
In the case of `Cc1cc(C(=O)c2cccs2)sc1C(=O)NC1C2CC3CC1CC(O)(C3)C2` (stereo not drawn) [Example 10], the IC50 [1] is reported as 11.7 nM.
Compound `Cc1cc(C(=O)c2cccn2C)sc1C(=O)NC1C2CC3CC1CC(O)(C3)C2` (stereo not drawn) [Example 11] has an IC50 [2] of 4.3 nM and an IC50 [1] of 5.1 nM.
Compound `O=C(c1ccc(C(=O)NC2C3CC4CC2CC(O)(C4)C3)c(Cl)c1)c1ccccc1F` (stereo not drawn) [Example 16] has an IC50 [2] of 3.6 nM.
For `COCc1cc(C(=O)c2ccccc2)ccc1C(=O)N[C@H]1C2CC3CC1C[C@](O)(C3)C2` [Example 51], the IC50 [2] was less than 3 nM.
`O=C(Cc1ccccc1)c1ccc(C(=O)N[C@H]2C3CC4CC2C[C@](O)(C4)C3)c(Cl)c1` [Example 52] gave an IC50 [2] of 12 nM.
Work on `Cn1cccc1C(=O)c1ccc(C(=O)N[C@H]2C3CC4CC2C[C@](O)(C4)C3)c(Cl)c1` [Example 53] yielded an IC50 [2] of 16 nM.
Work on `COc1cc(C(=O)c2cccn2C)ccc1C(=O)NC1C2CC3CC1CC(O)(C3)C2` (stereo not drawn) [Example 55] yielded an IC50 [1] of 4.8 nM.
For `Cc1cc(C(=O)c2ccccc2)n(C)c1C(=O)N[C@H]1C2CC3CC1C[C@](O)(C3)C2` [Example 62], the IC50 [2] was less than 3 nM.
For `CCc1cc(C(=O)c2ccc(F)cc2)ccc1C(=O)NC1C2CC3CC1CC(O)(C3)C2` (stereo not drawn) [Example 98], the IC50 [2] was 3 nM.
Compound `CCOc1cc(C(=O)c2cc(F)ccc2F)ccc1C(=O)NC1C2CC3CC1CC(O)(C3)C2` (stereo not drawn) [Example 258] has an IC50 [1] of 3.2 nM.
Work on `CCn1nccc1C(=O)c1ccc(C(=O)NC2C3CC4CC2CC(O)(C4)C3)c(COC)c1` (stereo not drawn) [Example 368] yielded an IC50 [2] of 3.7 nM.
With `CCCc1cc(C(=O)c2cccn2C)ccc1C(=O)NC1C2CC3CC1CC(O)(C3)C2` (stereo not drawn) [Example 424] the IC50 [2] was less than 3 nM.
With `COCc1cc(C(=O)c2ccccn2)ccc1C(=O)NC1C2CC3CC1CC(O)(C3)C2` (stereo not drawn) [Example 429] the IC50 [2] was 9.5 nM.
`COCc1cc(C(=O)c2ccccc2)n(C)c1C(=O)N[C@H]1C2CC3CC1C[C@](O)(C3)C2` [Example 440, 5-Benzoyl-N-[(E)-5-hydroxyadamantan-2-yl]-3-(methoxymethyl)-1-methyl-1H-pyrrole-2-carboxamide] gave an IC50 [2] of less than 3 nM.
`COCCc1cc(C(=O)c2ccccc2F)ccc1C(=O)N[C@H]1C2CC3CC1C[C@](O)(C3)C2` [Example 443, 4-(2-Fluorobenzoyl)-N-[(E)-5-hydroxyadamantan-2-yl]-2-(2-methoxyethyl)benzamide] showed an IC50 [2] of 1.4 nM.
Work on `CCc1cc(C(=O)c2cccn2C)n(C)c1C(=O)NC1C2CC3CC1CC(O)(C3)C2` (stereo not drawn) [Example 485] yielded an IC50 [1] of 18.4 nM.
For `CCc1cc(C(=O)c2cccc(OC)c2F)n(C)c1C(=O)NC1C2CC3CC1CC(O)(C3)C2` (stereo not drawn) [Example 486], the IC50 [2] was 2.8 nM.
In the case of `CCc1cc(C(=O)c2c(F)cccc2F)n(C)c1C(=O)NC1C2CC3CC1CC(O)(C3)C2` (stereo not drawn) [Example 487], the IC50 [1] is reported as 25 nM.
With `CCc1cc(C(=O)c2cccc(F)c2F)n(C)c1C(=O)NC1C2CC3CC1CC(O)(C3)C2` (stereo not drawn) [Example 488] the IC50 [2] was 4.2 nM.
`CCc1cc(C(=O)c2ccc(C)s2)n(C)c1C(=O)NC1C2CC3CC1CC(O)(C3)C2` (stereo not drawn) [Example 499] gave an IC50 [2] of less than 3 nM.
Work on `CCc1cc(C(=O)C2(c3ccccc3)CCC2)n(C)c1C(=O)NC1C2CC3CC1CC(O)(C3)C2` (stereo not drawn) [Example 504] yielded an IC50 [2] of 7.3 nM.
With `CCc1cc(C(=O)C(C)(C)c2ccccc2)n(C)c1C(=O)NC1C2CC3CC1CC(O)(C3)C2` (stereo not drawn) [Example 505] the IC50 [1] was 9.6 nM.
Work on `Cn1c(C(=O)c2ccccc2F)cc(Cl)c1C(=O)NC1C2CC3CC1CC(O)(C3)C2` (stereo not drawn) [Example 514] yielded an IC50 [1] of 20.7 nM.
Compound `Cn1c(C(=O)c2cccc(F)c2)cc(Cl)c1C(=O)NC1C2CC3CC1CC(O)(C3)C2` (stereo not drawn) [Example 515] has an IC50 [2] of 1.5 nM.
In the case of `Cn1c(C(=O)c2ccc(F)cc2)cc(Cl)c1C(=O)NC1C2CC3CC1CC(O)(C3)C2` (stereo not drawn) [Example 516], the IC50 [2] is reported as less than 3 nM.
